Data from ChEMBL document CHEMBL1201862, “PubChem BioAssay data set” (2004).
Activity calls are given as the source filed them.

Assays:
[1] = Luminescence Cell-Based Dose Response HTS to Identify Inhibitors of 5'UTR Stem-Loop Driven Prion Protein mRNA Translation in H4 Neuroglioblastoma Cells. [Related pubchem assays: 1827 (Project Summary), 1813 (Primary HTS)]; type: functional
[2] = luciferase reporter signal suppression in cells – H4 neuroglioma cells, luminescence, dose response (AID 1990); type: functional, cell-based
[3] = alpha-synuclein stem-loop luciferase translation blockers – H4 neuroglioma cells, luminescence, confirmation (AID 1988); type: functional, cell-based
[4] = Luminescence Cell-Based Dose Response HTS to Identify Activators of Luciferase Translation or Activity in H4 […] Cells. [Related pubchem assays: 1829 (Project Summary), 1814 (Primary HTS)]; type: functional
[5] = Luminescence Cell-Based Dose Confirmation HTS to Identify Activators of 5'UTR Stem-Loop Driven Alpha-Synuclein mRNA Translation in H4 Neuroglioblastoma Cells. [Related pubchem assays: 1829 (Project Summary), 1814 (Primary HTS)]; type: functional
H4 = experiment: Luminescence Cell-Based Dose Response HTS to Identify Activators of 5'UTR Stem-Loop Driven Prion Protein mRNA Translation in H4 Neuroglioblastoma Cells. [Related pubchem assays: 1829 (Project Summary), 1814 (Primary HTS)]; type: functional; settings: Homo sapiens
Cytochrome P450 2C9 = Cytochrome P450 2C9 (Homo sapiens, UniProt P11712)
Cytochrome P450 3A4 = Cytochrome P450 3A4 (Homo sapiens, UniProt P08684);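 also: CYP3A4 tested as one member of a cytochrome P450 panel screen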
Cytochrome P450 2C19 = Cytochrome P450 2C19 (Homo sapiens, UniProt P33261); experiment: Cytochrome panel assay with activity outcomes. Panel member name: p450-cyp2c19 Compounds with AC50 equal or less than 10 uM are considered active; type: functional; settings: read-out: AC50
Cytochrome P450 2C19, sequence (P33261 whole entry): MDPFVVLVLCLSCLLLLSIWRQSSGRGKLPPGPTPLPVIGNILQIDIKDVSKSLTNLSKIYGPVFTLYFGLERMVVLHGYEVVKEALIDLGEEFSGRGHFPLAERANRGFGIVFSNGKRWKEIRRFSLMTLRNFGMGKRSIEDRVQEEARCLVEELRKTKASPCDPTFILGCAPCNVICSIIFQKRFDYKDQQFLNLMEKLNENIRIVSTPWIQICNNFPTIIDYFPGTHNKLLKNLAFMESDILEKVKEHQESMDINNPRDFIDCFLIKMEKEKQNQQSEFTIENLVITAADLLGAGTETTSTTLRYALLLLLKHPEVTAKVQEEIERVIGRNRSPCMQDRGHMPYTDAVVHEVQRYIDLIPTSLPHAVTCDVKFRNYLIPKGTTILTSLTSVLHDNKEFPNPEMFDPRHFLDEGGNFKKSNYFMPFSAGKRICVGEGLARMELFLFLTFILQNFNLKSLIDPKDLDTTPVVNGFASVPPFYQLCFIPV

Cytochrome P450 2C9, sequence (P11712 whole entry): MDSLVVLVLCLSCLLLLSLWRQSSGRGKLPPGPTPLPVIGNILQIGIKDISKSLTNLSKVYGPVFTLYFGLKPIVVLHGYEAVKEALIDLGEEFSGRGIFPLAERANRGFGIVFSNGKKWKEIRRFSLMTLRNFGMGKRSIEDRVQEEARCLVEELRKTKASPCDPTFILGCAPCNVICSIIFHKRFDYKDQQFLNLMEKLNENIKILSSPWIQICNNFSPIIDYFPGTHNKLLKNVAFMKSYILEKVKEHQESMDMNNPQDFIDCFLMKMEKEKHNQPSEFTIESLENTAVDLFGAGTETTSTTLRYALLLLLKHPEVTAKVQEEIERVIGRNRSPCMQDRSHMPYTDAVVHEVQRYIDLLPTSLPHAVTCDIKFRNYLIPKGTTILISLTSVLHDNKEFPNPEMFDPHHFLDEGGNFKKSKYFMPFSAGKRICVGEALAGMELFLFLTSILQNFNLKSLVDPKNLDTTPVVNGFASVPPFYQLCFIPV
Cytochrome P450 3A4, sequence (P08684 whole entry): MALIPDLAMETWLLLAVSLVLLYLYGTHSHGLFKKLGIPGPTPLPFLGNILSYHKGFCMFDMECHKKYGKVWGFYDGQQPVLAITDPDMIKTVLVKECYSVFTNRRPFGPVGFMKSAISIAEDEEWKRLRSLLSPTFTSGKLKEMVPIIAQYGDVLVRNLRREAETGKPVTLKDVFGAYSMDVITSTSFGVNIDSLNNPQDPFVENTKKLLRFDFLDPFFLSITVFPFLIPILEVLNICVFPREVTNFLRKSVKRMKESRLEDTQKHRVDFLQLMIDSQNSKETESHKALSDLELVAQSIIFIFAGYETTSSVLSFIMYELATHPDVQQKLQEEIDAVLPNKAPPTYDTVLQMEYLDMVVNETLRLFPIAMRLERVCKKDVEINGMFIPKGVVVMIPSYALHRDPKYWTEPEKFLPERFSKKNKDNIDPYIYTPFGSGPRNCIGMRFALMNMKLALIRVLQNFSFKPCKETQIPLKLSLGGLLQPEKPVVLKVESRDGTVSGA

SMILES | EC50 [4] | EC50 [5] | EC50 (H4) | AC50 (Cytochrome P450 2C9) | also measured
CC(C)CCn1c(N)c(S(=O)(=O)c2cccs2)c2nc3ccccc3nc21 | – | – | – | – | EC50 [1]: > 120 µM (not active); EC50 [2]: 69 µM (active); EC50 [3]: > 120 µM (not active)
COC(=O)c1ccc(COC(=O)c2nn(C)c(=O)c3ccccc23)cc1 | 14.1 µM (active) | 15.6 µM (active) | > 120 µM (not active) | – | –
Cc1nn(C)c(C)c1CNC(=O)c1cnn2c1NC(c1ccccc1)CC2C(F)(F)F (stereo not drawn) | – | – | – | 15.8 µM (inconclusive) | –
CCOC(=O)N1CCC(NC(=O)c2ccc3c(c2)sc2nc(-c4cccc(OC)c4)cn23)CC1 | 12.6 µM (active) | 28.6 µM (active) | 7.29 µM (active) | – | –
CC(C)[C@@H]1NC(=O)[C@H](CCCCN)NC(=O)[C@H](Cc2c[nH]c3ccccc23)NC(=O)[C@H](Cc2ccc(O)cc2)NC(=O)[C@H](C)N(C)C(=O)[C@H](Cc2ccccc2)NC1=O | – | – | – | 25.1 µM (inconclusive) | –
COc1cc(N=C(S)N2CCOCC2)c(OC)cc1Cl | > 120 µM (not active) | > 120 µM (not active) | > 120 µM (not active) | – | –
COC(=O)c1cnn(-c2nc(-c3ccccc3)cs2)c1N | 72.2 µM (active) | 0.585 µM (active) | > 120 µM (not active) | – | –
O=C(OCc1nc2ccccc2[nH]1)C12CC3CC(CC(C3)C1)C2 | – | – | – | 14.1 µM (inconclusive) | AC50 (Cytochrome P450 3A4): 1.12 µM (inconclusive)
O=C(CCN1CCN(CC(=O)Nc2ccccc2Cl)CC1)Nc1ccccc1F | – | – | – | 10 µM (inconclusive) | AC50 (Cytochrome P450 3A4): 20 µM (inconclusive)
COC(=O)c1cc(CSc2nc3ccccc3[nH]2)oc1C | 31.9 µM (active) | 12.8 µM (active) | – | – | –
C=CCOc1ccc(C(=O)C2=C(O)C(=O)N(CCCn3ccnc3)C2c2cccs2)cc1 (stereo not drawn) | 12 µM (active) | > 120 µM (not active) | > 120 µM (not active) | – | –
O=C(c1cc(C(F)(F)F)cc(C(F)(F)F)c1)N1CCC2(CCCN(Cc3ccncc3)C2)CC1 | – | – | – | 7.94 µM (inconclusive) | AC50 (Cytochrome P450 3A4): 10 µM (inconclusive); AC50 (Cytochrome P450 2C19): 25.1 µM (inconclusive)
Cc1ccc2nc(-c3ccc(S(=O)(=O)N4CCCCC4)cc3)cn2c1 | 24.4 µM (active) | > 120 µM (not active) | 14.9 µM (active) | – | –
CC1CC1C(=O)OCC(=O)NC(=O)NC12CC3CC(CC(C3)C1)C2 (stereo not drawn) | 21.1 µM (active) | 13.1 µM (active) | 15.4 µM (active) | – | –
COC(=O)C1=C(NC(=O)c2cccs2)CCS1 | – | – | – | 39.8 µM (inconclusive) | AC50 (Cytochrome P450 2C19): 17.8 µM (inconclusive)
N#Cc1cccc(-c2nc(NCc3cccnc3)c3ccccc3n2)c1 | – | – | – | 1.58 µM (inconclusive) | –
C/C(=N\NC(N)=O)c1ccc(Cl)cc1 | – | – | – | 2 µM (inconclusive) | AC50 (Cytochrome P450 2C19): 31.6 µM (inconclusive)
CC1CCCC(/C=N/c2ccc3c(c2)OCO3)=C1O (stereo not drawn) | 16.1 µM (active) | 13.7 µM (active) | 39.1 µM (active) | – | –
